Reference: patent publication US20220249458A1, “Agonists Of Adiponectin” (BAYER AKTIENGESELLSCHAFT, priority 2019, published 2022)
Read-outs that look alike come from different tables or passages of the source.

How the values were obtained:
Lhcgr mRNA = Lhcgr mRNA expression in ovaries of db/db mice; format: in vivo; details: 50 mg/kg single po dose, 0.5-24 h
Method: (§1) FIGS. 6A and 6B Lhcgr mRNA expression (6A) and Cyp17a1 mRNA expression (6B) in ovaries of untreated db/db mice (black column) or db/db mice treated with 50 mg/kg Adiporon (grey column) is shown (n=3 biological replicates; error bars show SD). Expression of Cyp17a1 and Lhrgr mRNA in ovaries of adult female db/db mice were analyzed for untreated mice or mice treated with 50 mg/kg Adiporon as a single po dose given at t=0 h. At 0.5 h, 1 h, 2 h, 4 h, 24 h, mice were killed, and ovaries were taken, mRNA isolated (Qiagen, RNeasy Mini kit #74106) and mRNA quantified by Q-PCR (ThermoFisher Scientific Assay on demand #Mm00484040_ml for Cyp17a1 and Mm00442931_ml for Lhcgr).

[1] = Single dose exposure experiment in db/db mice (unbound plasma concentration, LC/MS); format: in vivo; details: 100 mg/kg p.o. single dose, adult female db/db mice, 0.5 h, 1 h, 4 h
Method: At t=0, a dose of 50 mg/kg (circle) or 100 mg/kg (squares) was given p.o. to adult female db/db mice. At each time point (0.5 h, 1 h, and 4 h) three mice were killed and the plasma concentration of unbound AdipoRon was determined by LC/MS.

[2] = system: steroid synthesis in db/db mice; experiment: Plasma AUC of testosterone and progesterone in female db/db mice; format: in vivo; details: single po dose 50 and 100 mg/kg, significant at 100 mg/kg (p<0.1)
Method: Female db/db mice, which were untreated, or treated with Adiporon at 50 mg/kg and 100 mg/kg with a single po dose, were analysed. Blood was taken at 0.5, 1, 2, 4, and 24 hours, and plasma concentrations of progesterone (ibl/Tecan Order No RE52231, Hamburg) and testosterone (Demeditec Order No DEV9911, Kiel) were determined by commercial ELISAs. Area under the curve (AUC) of total steroids was determined by an algorithm according to Gagnon et al. (1998) by GraphPadPrism software. […] The effects are significant at the higher dosage of AdipoRon of 100 mg/kg after a single application (* t-test AUC versus 100 mg/kg Adiporon (n=5 time points), double sided; p<0.1).

[3] = system: wt and Adipor1−/−Adipor2−/− mice; details: FIG. 9B, cited from earlier work
StAR mRNA in Y-1 cells = experiment: StAR mRNA induction by ACTH in adrenal cell line Y-1; format: cell-based, mouse
Method: (§2) Y-1 cells (epithelial cells of mouse adrenal gland origin) were cultivated in F12-K medium with 10% FBS and 15% donor horse serum. Cells were treated with 10 nM ACTH, and 30 min later the Adipor1/2 agonist AdipoRon was added in a final concentration of 0.1 μM, 1 μM, 10 μM for two and a half hours. Cells were harvested, mRNA isolated and […] and Star mRNA quantified relative to β-actin (Actb) mRNA. Hatched column: vehicle control, grey column: 10 nM ACTH, white columns: 10 nM ACTH+0.1 μM, 1 μM, or 10 μM AdipoRon.
(§3) ACTH is a hormone of the Hypothalamic-pituitary-adrenal axis and stimulates the expression of Steroidogenic acute regulatory protein (StAR) and […] ([…]), which then can lead to cortisol production and, as a consequence, insulin resistance. Insulin insensitivity is observed in women diagnosed with PCOS. […] EC50 for AdipoRon for this effect is around 10 μM for StAR, and around 0.1 to 1 μM for Cyp11b1, but seems to be saturated at higher concentrations.

LH = LH concentration in plasma of female rats at proestrous; format: in vivo, rat; details: female Han-Wistar rats, 50 or 100 mg/kg twice a day for one estrous cycle, d3 proestrous 7 pm
Description: For this, the cycle phase of untreated naive female Han-Wistar rats was staged by vaginal smears. Rat plasma was taken at different days and time points of the cycle (d3=proestrous, d4=estrous), and LH in plasma determined by a rat pituitary magnetic bead panel (Milliplex, Cat No RPTMAG-86K). LH peak could be detected at d3 at 7 pm in the afternoon as described previously (Smith et al. 1975). Thus, this time point is well suited for measurement of the effect of AdipoR1 and/or AdipoR2 receptors activation by AdipoRon. […] For this, the cycle phase of untreated naive female Han-Wistar rats was staged by vaginal smears. Rats were treated for one estrous cycle, beginning with metestrous, with 50 mg/kg or 100 mg/kg of Adiporon in a suitable vehicle twice a day. Rat plasma was taken at d3=proestrous at 7 pm, and LH was determined by a rat pituitary magnetic bead panel (Milliplex Cat No RPTMAG-86K).

[4] = system: Cyp11b1 mRNA in Y-1 cells; experiment: Cyp11b1 mRNA induction by ACTH in adrenal cell line Y-1; format: cell-based, mouse; details: for EC50: Mus musculus
Method: as §2, §3

[5] = system: DHEA-induced PCOS Model in rats; experiment: DHEA-induced PCOS Model in rats; format: in vivo, rat; details: 60 mg/kg/d DHEA sc 20 days, 50 mg/kg/d Adiporon last 10 days
Description: FIG. 8: Plasma testosterone concentration [nM] […] An autostimulation of adiponectin by stimulation of AdipoR1 and/or AdipoR2 has been described before and validates the activity of AdipoRon on the AdipoR1 and/or AdipoR2 receptors (Jardé et al. 2009).

tgLH mice = experiment: Oral glucose tolerance test in transgenic mice overexpressing LH (tgLH); format: in vivo; details: 100 mg/kg/d for four weeks, 2 g/kg glucose after 6 h fasting
Method: 9A: Plasma insulin concentration [mg/L] in wt-mice (light grey column) and untreated tgLH mice (dark grey column) or tgLH mice treated with 100 mg/kg Adiporon (black column) is shown. 9B: Insulin concentrations [ng/mL] during OGTT in wt (left diagram) and Adipor1−/−Adipor2−/−tg mice (right diagram) treated with vehicle (open circle) or treated with 100 mg/kg (circle) are shown.
Increased LH secretion is causal for the development of PCOS in women, and tgLH overexpression in mice recapitulates the human PCOS phenotype in women. For this experiment, an oral glucose tolerance test was performed in control, transgenic LH overexpressing mice, and tgLH mice treated with Adiporon at 100 mg/kg/d for four weeks. To determine insulin sensitivity, plasma was taken at 15 min after giving an oral glucose gavage of 2 g/kg after fasting of the mice for 6 h in the last two days of the experiment (Andrikopoulos et al. 2008).

Cyp17a1 mRNA = Cyp17a1 mRNA expression in ovaries of db/db mice; format: in vivo; details: 50 mg/kg single po dose, 0.5-24 h
Method: as §1

[6] = target: T1, adiponectin receptor 2 (AdipoR2) (Homo sapiens, UniProt Q86V24); details: Dib et al. 2017; cited from earlier work
T1 sequence (Q86V24 1-386): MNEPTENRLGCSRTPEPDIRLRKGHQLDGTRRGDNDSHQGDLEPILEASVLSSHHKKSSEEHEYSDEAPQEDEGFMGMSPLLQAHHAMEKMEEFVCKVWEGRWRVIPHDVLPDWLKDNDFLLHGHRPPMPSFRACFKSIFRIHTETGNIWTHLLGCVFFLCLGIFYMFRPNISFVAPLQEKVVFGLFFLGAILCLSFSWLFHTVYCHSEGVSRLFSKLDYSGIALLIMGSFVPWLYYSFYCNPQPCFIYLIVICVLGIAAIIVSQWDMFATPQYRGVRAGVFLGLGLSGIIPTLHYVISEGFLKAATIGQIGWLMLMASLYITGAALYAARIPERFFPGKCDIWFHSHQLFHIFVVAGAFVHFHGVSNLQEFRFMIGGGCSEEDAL

[7] = target: T2, adiponectin receptor 1 (AdipoR1) (Homo sapiens, UniProt Q96A54); details: Dib et al. 2017; cited from earlier work
T2 sequence (Q96A54 1-375): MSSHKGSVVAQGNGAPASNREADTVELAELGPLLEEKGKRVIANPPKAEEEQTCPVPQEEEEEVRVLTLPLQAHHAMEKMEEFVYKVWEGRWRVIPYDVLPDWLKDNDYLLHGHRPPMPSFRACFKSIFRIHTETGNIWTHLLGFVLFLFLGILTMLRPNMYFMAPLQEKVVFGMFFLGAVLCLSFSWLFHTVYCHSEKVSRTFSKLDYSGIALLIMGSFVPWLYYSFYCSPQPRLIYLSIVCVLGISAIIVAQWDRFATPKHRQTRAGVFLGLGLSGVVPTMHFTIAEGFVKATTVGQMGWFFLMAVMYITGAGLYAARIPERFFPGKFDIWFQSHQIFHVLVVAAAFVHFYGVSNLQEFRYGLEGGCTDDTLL

| plasma concentration of unbound AdipoRon versus EC50 [1] | EC50 (StAR mRNA in Y-1 cells; Mus musculus, 10 nM ACTH, AdipoRon two and a half hours, FIG. 2A, read-out: EC50 for reduction of the induction of StAR by ACTH) | EC50 ([4]; Y-1 cell, as restated for FIG. 5 (see FIG. 2), read-out: EC50 value for effects in Y-1 cell) | EC50 ([4]; Y-1 cells, 10 nM ACTH, AdipoRon two and a half hours, FIG. 2B, seems saturated at higher concentrations, read-out: EC50 for reduction of the induction of Cyp11b1 by ACTH) | SMILES | Lhcgr (LH receptor) mRNA expression in ovaries (Lhcgr mRNA) | plasma AUC of progesterone [2] | plasma AUC of testosterone [2] | Insulin concentrations during OGTT, Adipor1−/−Adipor2−/− mice ([3]; mice double negative for Adiponectin Receptors 1 and 2, 100 mg/kg) | Insulin concentrations during OGTT, wild-type mice ([3]; wt mice, 100 mg/kg) | effect on induction of StAR mRNA by ACTH (StAR mRNA in Y-1 cells; 10 nM ACTH + 0.1, 1 or 10 μM) | LH concentration in plasma (LH) | effect on induction of Cyp11b1 mRNA by ACTH ([4]; Y-1 cells, 10 nM ACTH + 0.1, 1 or 10 μM) | plasma adiponectin concentration [5] | Plasma testosterone concentration ([5]; p<0.05) | insulin sensitivity (plasma insulin 15 min after oral glucose) (tgLH mice) | Cyp17a1 mRNA expression in ovaries (Cyp17a1 mRNA) | binding to AdipoR2 [6] | binding to AdipoR1 [7] |
| --- | --- | --- | --- | --- | --- | --- | --- | --- | --- | --- | --- | --- | --- | --- | --- | --- | --- | --- |
| reaches the EC50 value | ~10 µM | ~0.1 µM | 0.1 to 1 µM | O=C(COc1ccc(C(=O)c2ccccc2)cc1)NC1CCN(Cc2ccccc2)CC1 [AdipoRon, 2-(4-Benzoylphenoxy)-N-(1-benzylpiperidin-4-yl)acetamide] | decreases the expression | increases Progesterone plasma concentration | reduces Testosterone plasma concentration | no effect on plasma insulin | comparable data | dose-dependently reduces the induction | dose-dependently reduces the induction of LH | dose-dependently reduces the induction | normalizes plasma adiponectin | significantly reduces the increase in Testosterone | insulin sensitivity is increased | decreases the expression |  |  |
|  |  |  |  | COc1ccc(CN2CCN(C(=O)CCNC(=O)c3ccc(C(C)(C)C)cc3)CC2)cc1 [Compound 112254, 4-(tert-Butyl)-N-(3-(4-(4-methoxybenzyl)piperazin-1-yl)-3-oxopropyl)benzamide] |  |  |  |  |  |  |  |  |  |  |  |  | binds to AdipoR1 and AdipoR2 | binds to AdipoR1 and AdipoR2 |
